Reference: publication PMC7898037, “Improving mitochondria and ER stability helps eliminate upper motor neuron degeneration that occurs due to mSOD1 toxicity and TDP‐43 pathology” (Clinical and Translational Medicine, 2021)

How the values were obtained:
[1] = system: UMNs in the motor cortex of prpTDP‐43^A315T‐UeGFP mice; assay: UMN quantification in motor cortex, prpTDP‐43^A315T‐UeGFP mice; assay type: in vivo
Experimental: (§1) hSOD1^G93A‐UeGFP, prpTDP‐43^A315T‐UeGFP and WT‐UeGFP mice were weighed and the required NU‐9 dose per weight was calculated (20 or 100 mg/kg), which was administered once daily by oral gavage, starting at postnatal day (P)60 and continuing until P120. Animals from the untreated group received the vehicle (NMP and olive oil) only. For oral administration purposes, 20 ga × 38 mm plastic feeding tubes were used (Instech Laboratories, Inc). The gavage tip was inserted into the mouth directly over the tongue and into the pharynx. While observing the swallowing reflex, the tip was safely and smoothly slid into the esophagus. Once the administration was completed, the gavage tip was pulled straight out.
Since UMNs are genetically labeled with eGFP expression in the motor cortex of WT‐UeGFP, hSOD1^G93A‐UeGFP, and prpTDP‐43^A315T‐UeGFP mice, UMNs were identified based on the GFP expression. Quantitative analyses were performed on three matched rostrocaudal sections spanning the motor cortex. Three images per subject were taken to capture a 4× objective filed that encompass layer 5 of the motor cortex. An inverted epifluorescent Eclipse TE2000‐E microscope (Nikon) with the same exposure time and intensity was used. UMNs were counted only if their soma and apical dendrite were both visualized in the same 50‐µm thick section. Images were analyzed in ImageJ (NIH) using the Find maxima processing command to determine the local maxima within a predetermined region of interest that circumscribes the layer 5 of the motor cortex. A universal noise tolerance, which ignores the local maxima corresponding to background and autofluorescence, was applied to all images.

Weight of the mice = assay type: in vivo; design: Mean Diff. of weight, vehicle vs. NU-9: unit not given here; conditions: for Mean weight (Mean 2): WT-UeGFP mice, in g (unit assumed); for Weight, Average: WT-UeGFP
Experimental: as §1
Behavior data were collected from hSOD1^G93A‐UeGFP and WT‐UeGFP mice (starting at P60 and every 7 days until P116) and from prpTDP‐43^A315T‐UeGFP mice (at P60, P90, and P120) with the following number of mice for each group: WT‐UeGFP vehicle (n = 10), hSOD1^G93A‐UeGFP vehicle (n = 6), WT‐UeGFP 20 mg/kg/day NU‐9 (n = 5), hSOD1^G93A‐UeGFP 20 mg/kg/day NU‐9 (n = 7), WT‐UeGFP 100 mg/kg/day NU‐9 (n = 11), hSOD1^G93A‐UeGFP 100 mg/kg/day NU‐9 (n = 9), prpTDP‐43^A315T‐UeGFP untreated (n ≥ 3), and prpTDP‐43^A315T‐UeGFP 100 mg/kg/day NU‐9 (n = 4) (Table S3).

C[C@H](Oc1cc(C(F)(F)F)cc(C(F)(F)F)c1)C1CC(=O)CC(=O)C1 [NU‐9]
Mean Diff., Fig. 7H, GT Untreated vs. GT NU-9 (100) ([1]; prpTDP43A315T-UeGFP untreated minus NU-9 100 mg/kg/day, Tukey's multiple comparisons test): -22.58
Mean, Fig. 7H (UMN quantification in motor cortex) ([1]; prpTDP-43A315T-UeGFP mice, NU-9 100 mg/kg/day): 59.17
average number of UMNs in the motor cortex ([1]; prpTDP‐43^A315T‐UeGFP mice, 100 mg/kg/day oral gavage P60–P120): 59 ± 3 UMNs
Mean Diff. of weight, vehicle vs. NU-9 (Weight of the mice; WT-UeGFP (vehicle) vs. WT-UeGFP (NU-9 20 mg/kg/day), P60, Tukey's multiple comparisons test): -0.6
Mean Diff. of weight, vehicle vs. NU-9 (Weight of the mice; WT-UeGFP (vehicle) vs. WT-UeGFP (NU-9 20 mg/kg/day), P67, Tukey's multiple comparisons test): -1.3
Mean Diff. of weight, vehicle vs. NU-9 (Weight of the mice; WT-UeGFP (vehicle) vs. WT-UeGFP (NU-9 20 mg/kg/day), P74, Tukey's multiple comparisons test): -0.9
Mean Diff. of weight, vehicle vs. NU-9 (Weight of the mice; WT-UeGFP (vehicle) vs. WT-UeGFP (NU-9 20 mg/kg/day), P81, Tukey's multiple comparisons test): -0.5
Mean Diff. of weight, vehicle vs. NU-9 (Weight of the mice; WT-UeGFP (vehicle) vs. WT-UeGFP (NU-9 20 mg/kg/day), P88, Tukey's multiple comparisons test): -0.1
Mean Diff. of weight, vehicle vs. NU-9 (Weight of the mice; WT-UeGFP (vehicle) vs. WT-UeGFP (NU-9 20 mg/kg/day), P95, Tukey's multiple comparisons test): 0
Mean Diff. of weight, vehicle vs. NU-9 (Weight of the mice; WT-UeGFP (vehicle) vs. WT-UeGFP (NU-9 20 mg/kg/day), P102, Tukey's multiple comparisons test): -0.2
Mean Diff. of weight, vehicle vs. NU-9 (Weight of the mice; WT-UeGFP (vehicle) vs. WT-UeGFP (NU-9 20 mg/kg/day), P109, Tukey's multiple comparisons test): -1
Mean Diff. of weight, vehicle vs. NU-9 (Weight of the mice; WT-UeGFP (vehicle) vs. WT-UeGFP (NU-9 20 mg/kg/day), P116, Tukey's multiple comparisons test): -1.267
Mean Diff. of weight, vehicle vs. NU-9 (Weight of the mice; WT-UeGFP (vehicle) vs. WT-UeGFP (NU-9 100 mg/kg/day), P60, Tukey's multiple comparisons test): -0.01818
Mean Diff. of weight, vehicle vs. NU-9 (Weight of the mice; WT-UeGFP (vehicle) vs. WT-UeGFP (NU-9 100 mg/kg/day), P67, Tukey's multiple comparisons test): -0.7545
Mean Diff. of weight, vehicle vs. NU-9 (Weight of the mice; WT-UeGFP (vehicle) vs. WT-UeGFP (NU-9 100 mg/kg/day), P74, Tukey's multiple comparisons test): -0.2818
Mean Diff. of weight, vehicle vs. NU-9 (Weight of the mice; WT-UeGFP (vehicle) vs. WT-UeGFP (NU-9 100 mg/kg/day), P81, Tukey's multiple comparisons test): -0.9364
Mean Diff. of weight, vehicle vs. NU-9 (Weight of the mice; WT-UeGFP (vehicle) vs. WT-UeGFP (NU-9 100 mg/kg/day), P88, Tukey's multiple comparisons test): -0.2091
Mean Diff. of weight, vehicle vs. NU-9 (Weight of the mice; WT-UeGFP (vehicle) vs. WT-UeGFP (NU-9 100 mg/kg/day), P95, Tukey's multiple comparisons test): -0.2
Mean Diff. of weight, vehicle vs. NU-9 (Weight of the mice; WT-UeGFP (vehicle) vs. WT-UeGFP (NU-9 100 mg/kg/day), P102, Tukey's multiple comparisons test): -0.5636
Mean Diff. of weight, vehicle vs. NU-9 (Weight of the mice; WT-UeGFP (vehicle) vs. WT-UeGFP (NU-9 100 mg/kg/day), P109, Tukey's multiple comparisons test): -0.2545
Mean Diff. of weight, vehicle vs. NU-9 (Weight of the mice; WT-UeGFP (vehicle) vs. WT-UeGFP (NU-9 100 mg/kg/day), P116, Tukey's multiple comparisons test): -0.7576
Mean weight (Mean 2) (Weight of the mice; NU-9 20 mg/kg/day, P60): 18.4
Mean weight (Mean 2) (Weight of the mice; NU-9 20 mg/kg/day, P67): 19
Mean weight (Mean 2) (Weight of the mice; NU-9 20 mg/kg/day, P74): 18.8
Mean weight (Mean 2) (Weight of the mice; NU-9 20 mg/kg/day, P81): 18.2
Mean weight (Mean 2) (Weight of the mice; NU-9 20 mg/kg/day, P88): 18.8
Mean weight (Mean 2) (Weight of the mice; NU-9 20 mg/kg/day, P95): 18.8
Mean weight (Mean 2) (Weight of the mice; NU-9 100 mg/kg/day, P60): 17.82
Mean weight (Mean 2) (Weight of the mice; NU-9 100 mg/kg/day, P67): 18.45
Mean weight (Mean 2) (Weight of the mice; NU-9 100 mg/kg/day, P74): 18.18
Mean weight (Mean 2) (Weight of the mice; NU-9 100 mg/kg/day, P81): 18.64
Mean weight (Mean 2) (Weight of the mice; NU-9 100 mg/kg/day, P88): 18.91
Mean weight (Mean 2) (Weight of the mice; NU-9 100 mg/kg/day, P95): 19
Weight, Average (Weight of the mice; NU-9 20 mg/kg/day po, P60): 18.4 g
Weight, Average (Weight of the mice; NU-9 20 mg/kg/day po, P67): 19 g
Weight, Average (Weight of the mice; NU-9 20 mg/kg/day po, P74): 18.8 g
Weight, Average (Weight of the mice; NU-9 20 mg/kg/day po, P81): 18.2 g
Weight, Average (Weight of the mice; NU-9 20 mg/kg/day po, P88): 18.8 g
Weight, Average (Weight of the mice; NU-9 20 mg/kg/day po, P95): 18.8 g
Weight, Average (Weight of the mice; NU-9 20 mg/kg/day po, P102): 19 g
Weight, Average (Weight of the mice; NU-9 20 mg/kg/day po, P109): 20.2 g
Weight, Average (Weight of the mice; NU-9 20 mg/kg/day po, P116): 20.6 g
Weight, Average (Weight of the mice; NU-9 100 mg/kg/day po, P60): 17.8182 g
Weight, Average (Weight of the mice; NU-9 100 mg/kg/day po, P67): 18.6 g
Weight, Average (Weight of the mice; NU-9 100 mg/kg/day po, P74): 18.1 g
Weight, Average (Weight of the mice; NU-9 100 mg/kg/day po, P81): 18.7 g
Weight, Average (Weight of the mice; NU-9 100 mg/kg/day po, P88): 18.9 g
Weight, Average (Weight of the mice; NU-9 100 mg/kg/day po, P95): 19 g
Weight, Average (Weight of the mice; NU-9 100 mg/kg/day po, P102): 19.5 g
Weight, Average (Weight of the mice; NU-9 100 mg/kg/day po, P109): 19.6 g
Weight, Average (Weight of the mice; NU-9 100 mg/kg/day po, P116): 20.3 g
Mean Diff. of weight, vehicle vs. NU-9 (Weight of the mice; hSOD1G93A-UeGFP (vehicle) vs. hSOD1G93A-UeGFP (NU-9 20 mg/kg/day), P60, Tukey's multiple comparisons test): 0.6667
Mean Diff. of weight, vehicle vs. NU-9 (Weight of the mice; hSOD1G93A-UeGFP (vehicle) vs. hSOD1G93A-UeGFP (NU-9 20 mg/kg/day), P67, Tukey's multiple comparisons test): 0.6429
Mean Diff. of weight, vehicle vs. NU-9 (Weight of the mice; hSOD1G93A-UeGFP (vehicle) vs. hSOD1G93A-UeGFP (NU-9 20 mg/kg/day), P74, Tukey's multiple comparisons test): 0.2381
Mean Diff. of weight, vehicle vs. NU-9 (Weight of the mice; hSOD1G93A-UeGFP (vehicle) vs. hSOD1G93A-UeGFP (NU-9 20 mg/kg/day), P81, Tukey's multiple comparisons test): 0.5952
